From US10588902B2, “Camptothecin derivatives as anti-HIV agents and methods of identifying agents that disrupt Vif self-association” (OyaGen, Inc., priority 2013, dated 2020)
In brackets after ≈: the same amount, converted by molar mass.

Columns and labels:
[1] = PubChem BioAssays; cited from earlier work
Topo1 = target: T1, Topo1 (Homo sapiens, UniProt P11387); assay: in vitro Topo1 drug screening assay (Topogen); assay type: biochemical; settings: increasing amounts, compared to the 0 chem control
T1 construct: purchased Topogen
T1 sequence (P11387 1-765): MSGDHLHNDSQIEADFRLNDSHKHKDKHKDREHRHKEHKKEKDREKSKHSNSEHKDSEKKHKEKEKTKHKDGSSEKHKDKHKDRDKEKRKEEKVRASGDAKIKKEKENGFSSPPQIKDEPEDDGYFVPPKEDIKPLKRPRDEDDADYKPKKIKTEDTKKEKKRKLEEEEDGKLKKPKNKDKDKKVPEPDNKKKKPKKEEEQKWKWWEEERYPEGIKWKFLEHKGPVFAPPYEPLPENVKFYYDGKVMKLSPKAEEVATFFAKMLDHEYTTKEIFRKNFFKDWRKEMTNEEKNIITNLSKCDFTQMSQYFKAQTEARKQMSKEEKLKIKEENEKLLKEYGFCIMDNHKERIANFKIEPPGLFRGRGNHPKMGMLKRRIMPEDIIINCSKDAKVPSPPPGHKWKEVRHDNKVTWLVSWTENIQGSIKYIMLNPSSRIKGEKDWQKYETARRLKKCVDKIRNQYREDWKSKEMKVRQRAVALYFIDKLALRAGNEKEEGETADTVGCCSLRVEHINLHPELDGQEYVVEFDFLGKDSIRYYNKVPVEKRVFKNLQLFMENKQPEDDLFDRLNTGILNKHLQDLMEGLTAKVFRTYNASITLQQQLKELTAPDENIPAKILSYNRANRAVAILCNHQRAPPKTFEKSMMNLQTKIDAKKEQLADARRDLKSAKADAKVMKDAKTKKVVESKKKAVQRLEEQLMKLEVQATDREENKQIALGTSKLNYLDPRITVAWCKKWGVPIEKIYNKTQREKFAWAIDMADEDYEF

A3.01 cells = assay: cell cycle test (propidium iodide, flow cytometry); assay type: cell-based; settings: for G2 block: CPT 0.2 μM, OYA002-16 0.2 and 0.4 μM
Description: FIGS. 9A and 9B illustrate results of an in vitro drug screening assay for toxicity of the OYA002-16 small molecule of the present invention. […] After 24 hours of compound treatment cells were fixed in methanol and treated with propidium iodide (PI) to stain the cellular DNA in A3.01 cells (a CEM derived T-cell line). Flow cytometry of the cells can detect if the cells are in the G1 S or G2 phase of mitosis based on amount of PI staining in each cell.

885 bp region of Pol = assay: Next Gen Sequencing for A3G signature mutation profiles; assay type: cell-based, HIV
From the text: FIG. 14 is an illustration relating to a Next Gen Sequencing for A3G signature mutation profiles. Next Gen Sequencing with the Ion Torrent platform was used to sequence over 27 million bases for each sample. An 885 bp region of Pol was nested PCR amplified from genomic DNA isolated from TZM-bl cells infected in the previous Figures with −Vif virus+A3G (Positive Control) and +Vif virus+A3G & OYA002-16 (OYA002-16) and −Vif−A3G & OYA002-16 (Negative Control). There were 60 possible A3G “GG” signature mutation sites (A3G mediated single-stranded DNA mutations occur preferentially at the 3′ C of CC dinucleotide pairs) in the region sequenced. 34 sites were mutated at a rate of 15- to 339-fold over the background mutation rate for the Positive Control. 34 sites were mutated at a rate of 48 to 200-fold over background for the OYA002-16 sample. 21 sites overlapped between the two.

[2] = stability test after 3 freeze/thaw cycles; assay type: physicochemical
Description: For each compound, an aliquot of the stock solution (250 uM in DMSO) was frozen for 24 hrs at −80° C. and thawed for 1 hr, 3 times, then diluted 10 times in 40% CAN and analyzed by HPLC.
(§1) HPLC conditions used for the experiments were as follows: Column: Luna C-18, 150×4.6 from Phenomenex. Eluent: 42% aqueous CAN with 0.75 mM NH4OAc, pH=6.8. Detection: UV at 254 nm. Temperature: 35° C. Flow: 1.5 mL/min. Injection: 20 uL (solubility, freeze/thaw) or 200 uL (stability).

A3G in viral particles = assay: A3G viral particle content (western blot of purified viral particles); assay type: cell-based; settings: p24 normalized
From the text: Perform ‘hit’ validation assays to confirm that small molecules selected by the primary and secondary screens have antiviral activity through their antagonism of Vif self-association. Antiviral activity will be validated for each compound with a luciferase viral infectivity reporter assay using infected TZM-bl cells in microtiter plate format. Each compound's ability to inhibit Vif-Vif interaction will be evaluated by co-immunoprecipitation.
Another way to observe target specificity is by looking at the amount of A3G that is encapsulated into the viral particle. Since Vif blocks A3G from getting into the virus, more A3G should be present in viral particles isolated from cells dosed with a small molecule that disables Vif's function.

solubility in Lac-Buffer = assay type: physicochemical; settings: 37 °C, thermodynamic from solid
Description: Solubility: 0.7 mg of OYA002-16 was suspended in 100.8 μl Lac-Buffer pH 4.5 or pH 7.4, vortexed for 10 min and warmed-up at 37° C. for 10 min, sonicated for 5 min and vortexed again for 10 min and centrifuged for 10 min. Supernatant was directly injected for concentration measurement. pH 7.4 Solubility: 65-72 μM by UV, 58-63 μM by CLND. pH 4.5 Solubility: 74-92 μM by UV, 74 μM by CLND.
as §1

[3] = tested on: Vif-dependent A3G degradation; assay: in-cell secondary screen for Vif-dependent A3G degradation (A3G-mCherry 293T cells); assay type: cell-based; settings: compared to +Vif (0%) and −Vif (100%) controls
Description: FIG. 10 illustrates in-cell secondary screen fro Vif-dependent A3G degradation. […] 50 ng of Vif was transiently transfected into the cells in 384-well format with Turbofect. 4 hours after transfection the chemistries were added to cells. 24 hours after chemistries were added the mCherry signal was read on a Biotek Synergy 4 plate reader. The signal from plated cells not transfected with Vif was averaged and set at 100% (left image), and cells transfected with Vif and treated with DMSO only were averaged and set at 0% (right image). A chemistry that inhibits Vif's ability to chaperone A3G to the proteasomal degradation pathway would result in an increased mCherry signal compared to the DMSO only control, and any signal that is much higher than the no-Vif positive control is likely to be due to autofluorescence from the chemistry itself.
The primary screen is represented as a change in RFU over the quenched control (ARFU). The secondary screen is compared to the +Vif (0%) and −Vif (100%) controls as described in FIG. 10.

pseudotyped HIV = assay: single round infectivity assay with pseudotyped HIV (TZM-bl luciferase reporter cells); assay type: cell-based; settings: up to 33.3 μM, +/−Vif, +/−A3G
Description: The antiviral activity of the hits in a single round infection with psuedotyped HIV was assessed. […] The wildtype HIV proviral vector codes for all HIV genes except nef (replaced with EGFP) and env. The delta Vif proviral vector is identical to wildtype except that it contains a stop codon early within the vif gene. […] Alternatively, in the absence of A3G, both wild type and Delta Vif viruses should have good infectivity.
Transfecting the coat protein on a separate vector, allows for only a single round of infection. […] Viral load was normalized with a p24 ELISA Kit (Zeptometrix, Buffalo, N.Y.). Equal viral loads were then added in triplicate to TZM-bl reporter cells that express luciferase from the HIV-LTR promoter. 48 hours after infection luciferase levels were assessed with Steady-Glo reagent (Promega).
The antiviral activity of the hits in a single-round infection with pseudotyped HIV were conducted using HEK293T producer cells +/−A3G and viruses that are +/−Vif. […]
The infections utilized TZM-bl reporter cells that contain stably integrated luciferase that is driven by the HIV-LTR promoter, therefore luciferase is expressed upon successful HIV infection. […] Luminescence was measured as a quantitative metric for changes in infectivity with each compound as compared to controls, in which relative luminescence units (RLU) with no compounds are set to 100%.

HepG2 cells = assay: high content imaging toxicity study, HepG2; assay type: cell-based
Description: (§2) All cells are plated on 384-well collagen-coated, tissue culture-treated black walled clear bottomed polystyrene plates. Rat hepatocytes are seeded and dosed on the day they are harvested. Dosing takes place after attachment to the plate. They are treated with test compound at a 10 point dose range of concentrations and incubated for 24 and 48 hrs. HepG2 cells are seeded on the day prior to dosing and are treated with test compound at a 10 point dose range of concentrations and incubated for 24 and 72 hours. At the end of the incubation period, the cells are loaded with the relevant dye/antibody for each cell health marker. The plates are then scanned using an automated High Content Imager, Array Scan® VTI (Thermo Fisher Cellomics). The GSH, ROS, and 5 day toxicity assays were run at 1 time point, 18 hours post-dosing for GSH, 4 hr post-dose for ROS, and 5 days post-drug treatment for the 5 day assay.

Vif:Vif complex = target: T2, Vif:Vif complex (Human immunodeficiency virus type 1 group M subtype B, UniProt P12504); assay type: cell-based, HIV; settings: change in RFU over the quenched control
T2 construct: expressed in transfected cells; host or cells: HEK 293T cells, transient co-transfection of two plasmids
T2 sequence (P12504 whole entry, one chain of several): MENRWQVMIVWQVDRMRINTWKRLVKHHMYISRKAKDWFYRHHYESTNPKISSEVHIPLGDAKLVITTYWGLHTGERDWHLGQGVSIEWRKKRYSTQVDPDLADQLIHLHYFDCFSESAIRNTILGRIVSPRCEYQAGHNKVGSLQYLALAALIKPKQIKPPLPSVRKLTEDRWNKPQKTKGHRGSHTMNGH
From the text: EGFP-V5-Vif (the fluorescence donor) and Vif-HA-REACh2 (the acceptor and non-fluorescent YFP variant that quenches EGFP fluorescence) will be co-expressed in HEK 293T cells. Compounds that dissociate Vif multimers will induce EGFP fluorescence making this a positive screen for small molecules that disrupt Vif self-association.
EGFP is a FRET donor and REACh2 (Resonance Energy Accepting Chromoprotein 2) is a non-fluorescent FRET acceptor (54). The non-fluorescent REACh2 is able to quench EGFP signal in a distance-dependent manner when they are linked to interacting domains. However, if there is no interaction, EGFP and REACh2 are not proximal and quenching will not occur. […]
EGFP-V5-Vif alone has a strong baseline fluorescence. […]
Experimentals relating to adapting the quenched FRET assay to 96-well and 384-well format are set forth below: • Description of reagents and readouts: We are currently capable of screening small libraries in 96-well format, and have optimized transfections for 384-well format. […] REACh2 is a non-fluorescent YFP variant that quenches EGFP through FRET, so in the default state Vif dimerizes and the EGFP signal is quenched, a compound that affects the interaction will cause an increase in fluorescence due to lack of FRET from interacting proteins (aka “releasing of the quench”). Our read out is fluorescence at GFP's excitation and emission in a PE Victor 3 plate reader. […]

[4] = tested on: rat hepatocytes and HepG2 cells; assay: high content imaging toxicity study, all tested cell types; assay type: cell-based
Description: as §2

[5] = stability test in PBS buffer; assay type: physicochemical; settings: after 48 h in PBS
Description: For each compound, a 0.250 uM stock solution in DMSO was prepared and sonicated until clear. Then, for each stability test, the cpd was formulated by adding 10 uL of the stock solution to 990 uL of PBS buffer, pH 7.0 and then a 200 uL aliquot was incubated 37° C. for 24 or 48 hrs.
as §1

SMILES: CC[C@@]1(O)C(=O)OCc2c1cc1n(c2=O)Cc2cc3c(NC(=O)CN)cccc3nc2-1 [9-glycineamido-20(S)-CPT]
- active in Anti-Cancer Screens at NCI [1]: 37 of 76

SMILES: CC[C@@]1(O)C(=O)OCc2c1cc1n(c2=O)Cc2cc3ccccc3nc2-1 [CPT, Camptothecin]
- open nicked circles of plasmid DNA (Topo1 poisoning) (Topo1): trap plasmid DNA into open nicked circles
- G2 block (A3.01 cells; 24 hours): strong G2 block

SMILES: CC[C@@]1(O)C(=O)NCc2c1cc1n(c2=O)Cc2cc3ccccc3nc2-1 [OYA002-16, Lactam-CPT]
- open nicked circles of plasmid DNA (Topo1 poisoning) (Topo1): no increase in open nicked circles
- mutated sites overlapping with Positive Control (885 bp region of Pol): 21 sites
- A3G signature mutation sites mutated (885 bp region of Pol; +Vif virus +A3G, 60 possible sites): 34 sites
- stable [2]: 100%
- A3G in viral particles (A3G in viral particles): increases A3G in viral particles
- solubility at 35 min (solubility in Lac-Buffer; pH 4.5, aqueous buffer, pH 4.5, by CLND): 74 µM (≈ 25.7 µg/mL)
- solubility at 35 min (solubility in Lac-Buffer; pH 4.5, aqueous buffer, pH 4.5, by UV): 74 to 92 µM (≈ 25.7 to 32 µg/mL)
- solubility at 35 min (solubility in Lac-Buffer; pH 7.4, aqueous buffer, pH 7.4, by CLND): 58 to 63 µM (≈ 20.1 to 21.9 µg/mL)
- solubility at 35 min (solubility in Lac-Buffer; pH 7.4, aqueous buffer, pH 7.4, by UV): 65 to 72 µM (≈ 22.6 to 25 µg/mL)
- dose dependence in secondary screen (mCherry signal) [3]: dose dependence
- cell cycle effects (A3.01 cells): minimal cell cycle effects
- cells in G2 (A3.01 cells; 0.2 and 0.4 μM, 24 hours, DMSO control 17%): 22%
- G2 block (A3.01 cells; 24 hours): minimal amount of G2 block
- antiviral effect in single cycle HIV infectivity (pseudotyped HIV): dose dependent antiviral effect only when Vif and A3G were expressed
- Cytostasis (HepG2 cells): largest effect
- dose dependence in primary screen (Vif:Vif complex): dose dependence
- Stress and Apoptosis assays [4]: minimal effect
- Viability tests [4]: minimal effect
- stable [5]: 100%

SMILES: CC[C@@]1(O)C(=O)OCc2c1cc1n(c2=O)Cc2cc3c(CN(C)C)c(O)ccc3nc2-1 [Topotecan]
- active in Anti-Cancer Screens at NCI [1]: active in most

SMILES: CC[C@H]1C(=O)OCc2c1cc1n(c2=O)Cc2cc3ccccc3nc2-1 [deoxy-CPT]
- active in Anti-Cancer Screens at NCI [1]: 4 of 68
